Test results reported in ChEMBL document CHEMBL4507297, “Data for DCP probe PF-04457845” (2021).
pKi: −log10 of the molar value.

Columns and labels:
[1] = target: 5-hydroxytryptamine receptor 1A (Homo sapiens) (UniProt P08908); details: Compound concentration 10.0 uM
[2] = target: Type-1 angiotensin II receptor (Homo sapiens) (UniProt P30556); assay: AT1 (h) CEREP ligand profiling; details: Compound concentration 10.0 uM
[3] = target: Mitogen-activated protein kinase 14 (Homo sapiens) (UniProt Q16539); assay: p38alpha kinase (h) CEREP ligand profiling; details: Compound concentration 10.0 uM
[4] = target: Glutamate receptor ionotropic, kainate 2 (Homo sapiens) (UniProt Q13002); assay: Kainate CEREP ligand profiling; details: Compound concentration 10.0 uM
[5] = target: Muscarinic acetylcholine receptor M3 (Homo sapiens) (UniProt P20309); assay: M3 (h) CEREP ligand profiling; details: Compound concentration 10.0 uM
[6] = target: 5-hydroxytryptamine receptor 1A (Homo sapiens) (UniProt P08908); assay: 5-HT1A (h) CEREP ligand profiling; details: Compound concentration 10.0 uM
[7] = target: Alpha-2C adrenergic receptor (Homo sapiens, UniProt P18825); assay: GPCRScan assay: inhibition of Alpha2C; set-up: radioligand conc. used [nm] 0.5 – 1.0, parental cells stable MDCK
[8] = target: Phosphodiesterase 4 (Homo sapiens) (UniProt P27815+Q08499+Q07343+Q08493); assay: PDE 4 (h) CEREP ligand profiling; format: protein assay; details: Compound concentration 10.0 uM
[9] = target: Cannabinoid receptor 2 (Homo sapiens, UniProt P34972); assay: CB2 (h) CEREP ligand profiling
[10] = target: Ca2+ channel (L, DHP site); voltage-gated L-type calcium channel (Homo sapiens, UniProt O60840+Q01668+Q13698+Q13936); assay: Ca2+ channel (L, DHP site) CEREP ligand profiling; format: protein assay; details: compound concentration 10 uM
[11] = target: Beta-3 adrenergic receptor (Homo sapiens) (UniProt P13945); details: Compound concentration 10.0 uM
[12] = target: Alpha-2B adrenergic receptor (Homo sapiens) (UniProt P18089); details: Compound concentration 10.0 uM
[13] = target: Mu-type opioid receptor (Homo sapiens) (UniProt P35372); assay: mu (h) (MOP) (agonist site) CEREP ligand profiling; details: Compound concentration 10.0 uM
[14] = target: Gastrin/cholecystokinin type B receptor (Homo sapiens) (UniProt P32239); assay: CCKB (h) (CCK2) CEREP ligand profiling; details: Compound concentration 10.0 uM
[15] = target: Glutamate receptor ionotropic, AMPA (Rattus norvegicus) (UniProt P19491+P19492+P19493+P19490); assay: AMPA CEREP ligand profiling; format: protein-complex assay; details: Compound concentration 10.0 uM
[16] = target: Cholecystokinin receptor type A (Homo sapiens) (UniProt P32238); assay: CCKA (h) (CCK1) CEREP ligand profiling; details: Compound concentration 10.0 uM
[17] = target: D(2) dopamine receptor (Homo sapiens) (UniProt P14416); assay: D2S (h) CEREP ligand profiling; details: Compound concentration 10.0 uM
[18] = target: Sodium-dependent noradrenaline transporter (Homo sapiens) (UniProt P23975); assay: NE transporter (h) CEREP ligand profiling; details: Compound concentration 10.0 uM
[19] = target: GABA-A receptor; anion channel (Homo sapiens) (UniProt P14867+P47870+P18507+P28472+P48169+Q99928+Q9UN88+P34903+O00591+O14764+Q8N1C3+P18505+P78334+P47869+P31644+Q16445); assay: BZD (central) CEREP ligand profiling; format: protein-complex assay; details: Compound concentration 10.0 uM
[20] = target: Acetylcholinesterase (Homo sapiens) (UniProt P22303); assay: Acetylcholinesterase (h) CEREP ligand profiling; details: Compound concentration 10.0 uM
Acetylcholinesterase (Homo sapiens), sequence (P22303 whole entry): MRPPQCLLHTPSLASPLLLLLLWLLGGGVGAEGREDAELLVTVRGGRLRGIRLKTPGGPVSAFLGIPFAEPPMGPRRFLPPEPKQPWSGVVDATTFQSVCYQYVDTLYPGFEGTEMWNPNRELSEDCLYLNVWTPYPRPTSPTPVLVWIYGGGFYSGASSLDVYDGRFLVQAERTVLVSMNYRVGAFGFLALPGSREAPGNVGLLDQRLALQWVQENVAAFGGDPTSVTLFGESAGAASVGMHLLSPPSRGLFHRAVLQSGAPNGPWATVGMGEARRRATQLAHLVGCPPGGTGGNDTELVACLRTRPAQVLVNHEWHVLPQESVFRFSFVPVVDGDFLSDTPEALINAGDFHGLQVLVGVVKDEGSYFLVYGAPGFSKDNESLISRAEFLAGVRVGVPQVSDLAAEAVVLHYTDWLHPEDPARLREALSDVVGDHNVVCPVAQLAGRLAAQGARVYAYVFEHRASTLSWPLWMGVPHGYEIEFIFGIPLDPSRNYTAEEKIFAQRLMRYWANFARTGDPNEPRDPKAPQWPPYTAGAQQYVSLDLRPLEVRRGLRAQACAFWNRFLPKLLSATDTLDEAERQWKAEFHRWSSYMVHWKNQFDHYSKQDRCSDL

Cannabinoid receptor 2, sequence (P34972 whole entry): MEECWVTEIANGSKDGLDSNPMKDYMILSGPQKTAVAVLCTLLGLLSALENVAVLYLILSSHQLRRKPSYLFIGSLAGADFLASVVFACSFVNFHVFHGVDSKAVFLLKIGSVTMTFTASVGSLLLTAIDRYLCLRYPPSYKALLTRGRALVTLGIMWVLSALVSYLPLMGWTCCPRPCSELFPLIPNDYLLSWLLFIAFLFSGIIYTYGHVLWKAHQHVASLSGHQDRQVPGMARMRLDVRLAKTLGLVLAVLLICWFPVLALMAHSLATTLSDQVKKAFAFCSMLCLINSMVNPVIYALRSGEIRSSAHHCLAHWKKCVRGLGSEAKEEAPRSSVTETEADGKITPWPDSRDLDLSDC
5-hydroxytryptamine receptor 1A (Homo sapiens), sequence (P08908 whole entry): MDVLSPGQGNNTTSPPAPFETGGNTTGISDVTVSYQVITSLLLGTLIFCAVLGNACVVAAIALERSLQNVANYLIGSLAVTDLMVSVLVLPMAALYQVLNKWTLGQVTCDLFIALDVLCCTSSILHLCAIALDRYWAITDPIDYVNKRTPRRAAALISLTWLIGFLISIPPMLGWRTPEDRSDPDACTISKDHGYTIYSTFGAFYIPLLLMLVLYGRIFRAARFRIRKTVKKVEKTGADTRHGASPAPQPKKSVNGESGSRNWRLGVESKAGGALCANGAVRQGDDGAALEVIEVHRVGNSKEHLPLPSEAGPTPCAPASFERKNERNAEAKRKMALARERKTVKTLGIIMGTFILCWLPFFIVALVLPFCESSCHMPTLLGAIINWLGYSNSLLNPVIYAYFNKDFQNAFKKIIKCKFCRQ
Beta-3 adrenergic receptor (Homo sapiens), sequence (P13945 whole entry, looked up): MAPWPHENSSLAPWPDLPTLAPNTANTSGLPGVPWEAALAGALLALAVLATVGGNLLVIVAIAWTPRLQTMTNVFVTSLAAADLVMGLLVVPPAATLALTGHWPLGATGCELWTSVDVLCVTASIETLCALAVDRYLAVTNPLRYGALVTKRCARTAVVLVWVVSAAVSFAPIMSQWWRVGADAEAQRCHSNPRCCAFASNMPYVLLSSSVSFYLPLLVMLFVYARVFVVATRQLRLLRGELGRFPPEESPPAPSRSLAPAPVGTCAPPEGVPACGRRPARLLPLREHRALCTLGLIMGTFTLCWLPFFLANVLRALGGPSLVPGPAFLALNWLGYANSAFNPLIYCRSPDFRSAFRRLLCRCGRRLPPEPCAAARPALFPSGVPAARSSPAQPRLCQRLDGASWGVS
Mu-type opioid receptor (Homo sapiens), sequence (P35372 whole entry): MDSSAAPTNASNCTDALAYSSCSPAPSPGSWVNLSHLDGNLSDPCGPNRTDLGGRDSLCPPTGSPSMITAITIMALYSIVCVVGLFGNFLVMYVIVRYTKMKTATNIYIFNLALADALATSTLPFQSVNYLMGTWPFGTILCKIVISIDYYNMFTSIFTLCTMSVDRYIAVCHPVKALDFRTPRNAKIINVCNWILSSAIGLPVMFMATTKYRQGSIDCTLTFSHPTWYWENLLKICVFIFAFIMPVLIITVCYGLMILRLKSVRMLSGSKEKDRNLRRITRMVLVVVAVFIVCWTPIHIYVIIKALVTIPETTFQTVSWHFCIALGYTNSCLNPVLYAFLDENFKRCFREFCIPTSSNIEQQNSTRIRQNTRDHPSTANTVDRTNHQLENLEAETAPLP
Glutamate receptor ionotropic, kainate 2 (Homo sapiens), sequence (Q13002 whole entry): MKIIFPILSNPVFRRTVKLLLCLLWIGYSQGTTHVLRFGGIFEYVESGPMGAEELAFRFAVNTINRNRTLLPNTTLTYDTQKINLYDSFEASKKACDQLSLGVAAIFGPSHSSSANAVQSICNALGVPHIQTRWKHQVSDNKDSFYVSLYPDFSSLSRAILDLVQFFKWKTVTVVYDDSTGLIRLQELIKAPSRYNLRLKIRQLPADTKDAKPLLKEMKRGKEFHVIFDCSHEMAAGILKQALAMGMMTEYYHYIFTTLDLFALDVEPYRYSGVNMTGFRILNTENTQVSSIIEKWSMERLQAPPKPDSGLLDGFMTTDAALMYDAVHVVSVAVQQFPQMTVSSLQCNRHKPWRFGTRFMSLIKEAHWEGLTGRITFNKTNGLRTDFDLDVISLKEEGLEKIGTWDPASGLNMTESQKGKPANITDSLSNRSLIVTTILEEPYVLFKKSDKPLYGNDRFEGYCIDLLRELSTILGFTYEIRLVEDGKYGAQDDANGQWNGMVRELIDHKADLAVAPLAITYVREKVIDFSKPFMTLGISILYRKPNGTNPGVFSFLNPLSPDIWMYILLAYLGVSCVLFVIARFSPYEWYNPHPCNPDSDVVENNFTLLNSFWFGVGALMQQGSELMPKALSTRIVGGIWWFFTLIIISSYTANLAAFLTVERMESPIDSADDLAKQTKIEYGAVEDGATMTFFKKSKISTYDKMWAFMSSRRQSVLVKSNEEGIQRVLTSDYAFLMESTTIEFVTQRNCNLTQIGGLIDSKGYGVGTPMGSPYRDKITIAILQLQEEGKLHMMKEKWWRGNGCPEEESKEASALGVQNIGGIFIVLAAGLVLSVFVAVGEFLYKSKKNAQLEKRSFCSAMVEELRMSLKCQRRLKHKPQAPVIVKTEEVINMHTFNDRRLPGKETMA
Alpha-2B adrenergic receptor (Homo sapiens), sequence (P18089 whole entry): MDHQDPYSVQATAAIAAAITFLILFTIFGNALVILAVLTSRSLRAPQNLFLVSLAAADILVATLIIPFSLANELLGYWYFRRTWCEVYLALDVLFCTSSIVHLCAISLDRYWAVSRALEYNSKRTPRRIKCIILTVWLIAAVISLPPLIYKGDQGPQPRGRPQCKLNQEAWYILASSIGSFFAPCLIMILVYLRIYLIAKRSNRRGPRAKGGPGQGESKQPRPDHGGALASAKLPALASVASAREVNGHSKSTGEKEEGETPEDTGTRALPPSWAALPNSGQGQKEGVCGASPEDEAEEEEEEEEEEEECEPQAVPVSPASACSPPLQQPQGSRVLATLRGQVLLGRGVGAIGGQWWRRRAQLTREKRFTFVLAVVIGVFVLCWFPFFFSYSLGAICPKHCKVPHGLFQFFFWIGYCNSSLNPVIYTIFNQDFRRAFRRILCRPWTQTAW
D(2) dopamine receptor (Homo sapiens), sequence (P14416 whole entry): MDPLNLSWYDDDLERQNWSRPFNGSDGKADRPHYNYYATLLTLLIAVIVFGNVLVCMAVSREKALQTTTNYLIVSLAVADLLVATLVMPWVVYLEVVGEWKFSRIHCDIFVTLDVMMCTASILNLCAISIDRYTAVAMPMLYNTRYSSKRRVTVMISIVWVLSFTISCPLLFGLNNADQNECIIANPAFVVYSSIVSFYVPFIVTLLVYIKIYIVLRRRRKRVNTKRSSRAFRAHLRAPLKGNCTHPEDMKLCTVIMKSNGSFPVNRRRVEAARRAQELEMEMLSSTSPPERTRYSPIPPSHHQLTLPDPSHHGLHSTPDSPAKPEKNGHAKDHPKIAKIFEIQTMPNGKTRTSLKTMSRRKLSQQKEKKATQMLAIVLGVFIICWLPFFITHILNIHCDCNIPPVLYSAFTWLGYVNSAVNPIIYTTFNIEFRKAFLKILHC
Muscarinic acetylcholine receptor M3 (Homo sapiens), sequence (P20309 whole entry, looked up): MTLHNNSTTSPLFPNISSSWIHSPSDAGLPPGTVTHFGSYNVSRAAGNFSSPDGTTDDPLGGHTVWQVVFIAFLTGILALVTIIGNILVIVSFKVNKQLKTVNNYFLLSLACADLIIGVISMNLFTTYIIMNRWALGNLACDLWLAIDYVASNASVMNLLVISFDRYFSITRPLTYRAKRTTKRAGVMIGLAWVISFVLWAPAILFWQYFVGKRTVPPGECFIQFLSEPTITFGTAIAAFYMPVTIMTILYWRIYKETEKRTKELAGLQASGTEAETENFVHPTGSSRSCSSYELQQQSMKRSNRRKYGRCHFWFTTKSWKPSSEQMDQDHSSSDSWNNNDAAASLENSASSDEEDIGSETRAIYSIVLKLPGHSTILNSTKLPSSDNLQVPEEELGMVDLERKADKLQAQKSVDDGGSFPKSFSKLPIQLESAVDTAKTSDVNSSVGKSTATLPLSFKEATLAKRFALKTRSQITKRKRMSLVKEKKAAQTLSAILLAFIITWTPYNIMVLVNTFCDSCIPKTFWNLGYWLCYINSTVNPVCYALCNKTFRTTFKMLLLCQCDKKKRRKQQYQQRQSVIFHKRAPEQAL
Mitogen-activated protein kinase 14 (Homo sapiens), sequence (Q16539 whole entry): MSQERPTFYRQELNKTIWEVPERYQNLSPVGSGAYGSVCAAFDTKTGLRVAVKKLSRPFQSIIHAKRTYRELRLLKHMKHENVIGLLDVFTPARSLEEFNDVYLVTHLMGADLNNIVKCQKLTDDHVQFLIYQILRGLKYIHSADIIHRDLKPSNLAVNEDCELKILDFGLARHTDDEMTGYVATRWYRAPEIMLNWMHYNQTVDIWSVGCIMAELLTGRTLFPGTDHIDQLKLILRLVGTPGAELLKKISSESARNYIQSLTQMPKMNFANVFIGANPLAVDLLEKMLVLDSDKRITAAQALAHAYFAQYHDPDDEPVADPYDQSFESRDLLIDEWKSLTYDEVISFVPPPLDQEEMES

O=C(Nc1cccnn1)N1CCC(=Cc2cccc(Oc3ccc(C(F)(F)F)cn3)c2)CC1
inhibition [1]: 20.2% | inhibition [2]: -10% | inhibition [3]: 1% | inhibition [4]: 2% | inhibition [5]: 11% | inhibition [6]: 6% | pKi [7]: 6.23 | inhibition [8]: 18% | pKi [9]: 5.29 | inhibition ([9]; Compound concentration 10.0 uM): 55% | inhibition at 10 µM [10]: 11% (not active) | inhibition [11]: 0.69% | inhibition [12]: 40% | inhibition [13]: 3% | inhibition [14]: -6% | inhibition [15]: -8% | inhibition [16]: -10% | inhibition [17]: -9% | inhibition [18]: -5% | inhibition [19]: 15% | inhibition [20]: 10%
